Source: ChEMBL document CHEMBL1129766, “SAR of 2-benzyl-4-aminopiperidines: CGP 49823, an orally and centrally active non-peptide NK1 antagonist” (Bioorg Med Chem Lett, 1996)
Each block holds one molecule with its values, some of them ahead of it. Activity calls are given as the source filed them. No cut-off for these calls is given here.

What was measured:
Gerbillinae [1] = experiment: Compound was tested for inhibition of thumping behavior in gerbils induced by iv administration of SP-methyl ester 2 hours after peroral administration of 30 mg/kg of the compound.; assay type: functional; conditions: route oral
[2] = target: T1, Substance-K receptor (Bos taurus) (UniProt P05363); experiment: (§1) Compound was tested for inhibition of [125I]NKA radioligand binding to NK2 receptor from bovine bladder; conditions: concentration not given here
T1 sequence (whole entry): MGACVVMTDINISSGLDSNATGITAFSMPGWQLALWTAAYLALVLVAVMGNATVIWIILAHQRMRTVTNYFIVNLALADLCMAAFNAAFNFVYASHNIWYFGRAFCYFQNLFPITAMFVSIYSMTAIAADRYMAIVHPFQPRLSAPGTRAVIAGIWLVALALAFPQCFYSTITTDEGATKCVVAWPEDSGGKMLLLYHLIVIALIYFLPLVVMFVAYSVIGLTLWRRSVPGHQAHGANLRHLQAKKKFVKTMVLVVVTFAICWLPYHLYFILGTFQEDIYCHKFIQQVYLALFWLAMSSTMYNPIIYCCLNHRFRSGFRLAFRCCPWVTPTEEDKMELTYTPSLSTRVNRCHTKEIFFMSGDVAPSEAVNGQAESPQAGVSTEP

Gerbillinae [3] = experiment: (§2) Tested for inhibition of thumping behavior in gerbils induced by iv administration of SP-methyl ester 2 hours after peroral administration of 30 mg/kg of the compound; assay type: functional, organism-based; parameters: dose 30 mg/kg, route oral
U373 MG = experiment: Compound was tested for inhibition of substance P induced phosphatidyl inositol turnover in human U-373 cells; assay type: functional, cell-based, U-373MG ATCC
Gerbillinae [4] = experiment: Tested for inhibition of thumping behavior in gerbils induced by iv administration of SP-methyl ester 2 hours after intraperitoneal administration of 60 mg/kg of the compound; assay type: functional
Substance-K receptor = target: T2, Substance-K receptor (Bos taurus, UniProt P05363); experiment: as §1
T2 sequence (P05363 whole entry): T1 sequence (whole entry)

Gerbillinae [5] = experiment: as §2; assay type: functional; conditions: route oral
[6] = target: T1, Substance-K receptor (Bos taurus); experiment: Compound was tested for inhibition of [125I]NKA radioligand binding to NK2 receptor from bovine bladder at 1 uM
[7] = target: T3, Neuromedin-K receptor (Homo sapiens) (UniProt P29371); conditions: Gerbillinae
T3 sequence (whole entry): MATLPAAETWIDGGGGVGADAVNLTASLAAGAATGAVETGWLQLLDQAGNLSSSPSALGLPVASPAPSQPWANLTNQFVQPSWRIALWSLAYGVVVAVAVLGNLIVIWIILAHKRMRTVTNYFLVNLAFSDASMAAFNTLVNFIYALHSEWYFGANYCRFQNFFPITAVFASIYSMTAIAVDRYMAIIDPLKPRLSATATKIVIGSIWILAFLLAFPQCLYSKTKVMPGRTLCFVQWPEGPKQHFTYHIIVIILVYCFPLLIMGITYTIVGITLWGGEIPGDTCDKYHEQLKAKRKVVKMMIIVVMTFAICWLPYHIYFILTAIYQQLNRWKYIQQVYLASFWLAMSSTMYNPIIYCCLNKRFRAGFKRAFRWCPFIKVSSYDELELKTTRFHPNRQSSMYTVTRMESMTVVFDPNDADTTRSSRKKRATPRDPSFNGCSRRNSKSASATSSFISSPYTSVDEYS

Neuromedin-K receptor = target: T4, Neuromedin-K receptor (Homo sapiens, UniProt P29371); experiment: Compound was tested for inhibition of [125I]eledoisin radioligand binding to NK3 receptor from gerbil cortex; NA means no activity; parameters: species or system Gerbillinae
T4 sequence (P29371 whole entry): T3 sequence (whole entry)

Compound: Cc1cc(C)cc(C(=O)N2CC[C@H](NCc3cnc4ccccc4c3)C[C@H]2Cc2ccccc2)c1
inhibition (Gerbillinae [3]): 21%
inhibition [2]: 22%
IC50 (U373 MG): 210 nM

Compound: Cc1cc(C)cc(C(=O)N2CC[C@@H](NCc3ccnc4ccccc34)C[C@H]2Cc2ccccc2)c1
inhibition in vivo at 60 mg/kg (Gerbillinae [4]): 20%

Compound: COc1ccccc1CN[C@H]1C2CCN(CC2)[C@H]1C(c1ccccc1)c1ccccc1 [CP-96345]
inhibition in vivo at 30 mg/kg (Gerbillinae [5]): 61%
IC50 (Neuromedin-K receptor): Not Active
inhibition [6]: 24%
IC50 (U373 MG): 9 nM

Continued, in another order:

inhibition [2]: 28%
Compound: O=C(N[C@H]1CCN(C(=O)c2cc(C(F)(F)F)cc(C(F)(F)F)c2)[C@H](Cc2ccccc2)C1)c1cc(O)nc2ccccc12
inhibition in vivo at 30 mg/kg (Gerbillinae [1]): 24%

IC50 (Substance-K receptor): 4500 nM
IC50 (U373 MG): 24 nM
Compound: O=C(N[C@H]1CCN(C(=O)c2cc(Cl)cc(Cl)c2)[C@H](Cc2ccccc2)C1)c1ccnc2ccccc12
inhibition in vivo at 30 mg/kg (Gerbillinae [1]): 66%

IC50 (Substance-K receptor): 2790 nM
IC50 (U373 MG): 12 nM
Compound: Cc1cc(C)cc(C(=O)N2CC[C@H](NCc3ccnc4ccccc34)C[C@H]2Cc2ccccc2)c1
inhibition in vivo at 30 mg/kg (Gerbillinae [5]): 34%

inhibition [6]: 5%
IC50 (U373 MG): 150 nM
NA [7]: inactive
Compound: Cc1cc(C)cc(C(=O)N2CC[C@@H](NCc3ccnc4ccccc34)C[C@@H]2Cc2ccccc2)c1
inhibition in vivo at 30 mg/kg (Gerbillinae [5]): 54%
